Source: ChEMBL document CHEMBL1201862, “PubChem BioAssay data set” (2004)
Active and inactive are the calls of the source.

Tests used:
[1] = biological target: T1, Replicative DNA helicase DnaB (Mycobacterium tuberculosis, UniProt P9WMR3); assay: DnaB intein splicing inhibitors, dose response, biochemical, cell-free fluorescence (AID 449749); type: functional
T1 sequence (P9WMR3 whole entry): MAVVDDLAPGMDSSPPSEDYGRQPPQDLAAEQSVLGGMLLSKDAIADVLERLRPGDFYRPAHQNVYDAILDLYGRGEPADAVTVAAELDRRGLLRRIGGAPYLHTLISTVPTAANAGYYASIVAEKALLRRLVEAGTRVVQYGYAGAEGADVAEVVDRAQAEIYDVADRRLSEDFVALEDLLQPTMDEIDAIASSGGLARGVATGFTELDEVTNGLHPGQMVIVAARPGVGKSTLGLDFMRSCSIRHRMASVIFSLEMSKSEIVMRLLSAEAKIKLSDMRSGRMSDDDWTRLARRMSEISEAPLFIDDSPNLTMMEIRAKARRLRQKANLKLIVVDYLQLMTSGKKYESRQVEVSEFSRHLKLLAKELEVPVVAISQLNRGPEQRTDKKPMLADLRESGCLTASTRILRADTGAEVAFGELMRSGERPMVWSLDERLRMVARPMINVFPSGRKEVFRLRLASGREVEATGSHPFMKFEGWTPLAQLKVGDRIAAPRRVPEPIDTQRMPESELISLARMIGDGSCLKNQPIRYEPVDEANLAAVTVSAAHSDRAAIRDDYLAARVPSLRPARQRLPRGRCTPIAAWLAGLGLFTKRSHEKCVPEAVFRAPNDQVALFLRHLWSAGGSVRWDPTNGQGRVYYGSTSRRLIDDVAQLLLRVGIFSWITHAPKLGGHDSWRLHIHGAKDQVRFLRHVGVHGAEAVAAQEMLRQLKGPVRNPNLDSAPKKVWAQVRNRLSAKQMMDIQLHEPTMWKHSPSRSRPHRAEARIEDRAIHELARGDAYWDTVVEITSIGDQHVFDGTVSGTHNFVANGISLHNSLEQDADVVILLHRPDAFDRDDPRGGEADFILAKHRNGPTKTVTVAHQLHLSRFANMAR

[2] = cytotoxicity toward DRD oncogenic fibroblasts, dose response, cell-based, non-viral oncogenic, luminescence (AID 1934); type: functional; conditions: Homo sapiens
BJ [3] = assay: cells; type: functional, cell-based; conditions: Homo sapiens
BJ [4] = assay: cytotoxicity toward BJ-TERT-LT-ST fibroblasts, dose response, cell-based, RAS-independent, luminescence (AID 1935); type: functional; conditions: Homo sapiens;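 note: BJ fibroblasts immortalized with TERT plus LT and ST oncogenes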
Protein RecA = biological target: T2, Protein RecA (Mycobacterium tuberculosis, UniProt P9WHJ3); assay: Fluorescence Cell-Free Homogeneous Dose Retest to Identify Inhibitors of RecA-Intein Splicing Activity. [Related pubchem assays (depositor defined):AID2097, AID2223, AID489010, AID492950]; type: functional
T2 sequence (P9WHJ3 whole entry): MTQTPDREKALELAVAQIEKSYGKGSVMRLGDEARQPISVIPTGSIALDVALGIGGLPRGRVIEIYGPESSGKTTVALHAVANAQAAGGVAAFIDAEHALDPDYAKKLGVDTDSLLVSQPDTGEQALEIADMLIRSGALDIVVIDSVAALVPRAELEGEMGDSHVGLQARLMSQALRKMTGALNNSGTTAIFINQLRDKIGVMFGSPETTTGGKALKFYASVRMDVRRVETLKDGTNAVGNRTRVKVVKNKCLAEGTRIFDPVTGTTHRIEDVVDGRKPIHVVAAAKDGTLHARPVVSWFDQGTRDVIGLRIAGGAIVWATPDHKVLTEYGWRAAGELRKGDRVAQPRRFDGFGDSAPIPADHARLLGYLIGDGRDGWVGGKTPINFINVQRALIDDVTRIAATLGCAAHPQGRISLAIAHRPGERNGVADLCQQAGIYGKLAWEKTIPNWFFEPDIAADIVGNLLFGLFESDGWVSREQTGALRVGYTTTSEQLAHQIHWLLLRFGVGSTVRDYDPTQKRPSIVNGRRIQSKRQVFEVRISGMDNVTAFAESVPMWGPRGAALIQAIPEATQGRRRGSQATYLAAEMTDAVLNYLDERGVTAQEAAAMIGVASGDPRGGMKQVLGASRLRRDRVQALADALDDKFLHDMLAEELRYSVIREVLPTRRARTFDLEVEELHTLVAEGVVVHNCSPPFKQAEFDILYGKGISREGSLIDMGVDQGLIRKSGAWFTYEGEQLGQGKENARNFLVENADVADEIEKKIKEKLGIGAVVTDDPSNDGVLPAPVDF

[5] = Intein inhibitors as potential Tuberculosis drugs, a cytotoxicity screen. [Related pubchem assays (depositor defined):AID2221, AID2223, AID434968, AID435010, AID449749, AID449750, AID489010]; type: functional
BJ [6] = assay: cytotoxicity toward BJ-TERT fibroblasts, dose response, cell-based, RAS-independent, luminescence (AID 1933); type: functional; conditions: Homo sapiens
Hexokinase HKDC1 = biological target: T3, Hexokinase HKDC1 (Homo sapiens, UniProt Q2TB90); assay: HKDC1 hexokinase inhibitors, dose response, biochemical, W721R variant (AID 504729); type: functional
T3 sequence (Q2TB90 whole entry): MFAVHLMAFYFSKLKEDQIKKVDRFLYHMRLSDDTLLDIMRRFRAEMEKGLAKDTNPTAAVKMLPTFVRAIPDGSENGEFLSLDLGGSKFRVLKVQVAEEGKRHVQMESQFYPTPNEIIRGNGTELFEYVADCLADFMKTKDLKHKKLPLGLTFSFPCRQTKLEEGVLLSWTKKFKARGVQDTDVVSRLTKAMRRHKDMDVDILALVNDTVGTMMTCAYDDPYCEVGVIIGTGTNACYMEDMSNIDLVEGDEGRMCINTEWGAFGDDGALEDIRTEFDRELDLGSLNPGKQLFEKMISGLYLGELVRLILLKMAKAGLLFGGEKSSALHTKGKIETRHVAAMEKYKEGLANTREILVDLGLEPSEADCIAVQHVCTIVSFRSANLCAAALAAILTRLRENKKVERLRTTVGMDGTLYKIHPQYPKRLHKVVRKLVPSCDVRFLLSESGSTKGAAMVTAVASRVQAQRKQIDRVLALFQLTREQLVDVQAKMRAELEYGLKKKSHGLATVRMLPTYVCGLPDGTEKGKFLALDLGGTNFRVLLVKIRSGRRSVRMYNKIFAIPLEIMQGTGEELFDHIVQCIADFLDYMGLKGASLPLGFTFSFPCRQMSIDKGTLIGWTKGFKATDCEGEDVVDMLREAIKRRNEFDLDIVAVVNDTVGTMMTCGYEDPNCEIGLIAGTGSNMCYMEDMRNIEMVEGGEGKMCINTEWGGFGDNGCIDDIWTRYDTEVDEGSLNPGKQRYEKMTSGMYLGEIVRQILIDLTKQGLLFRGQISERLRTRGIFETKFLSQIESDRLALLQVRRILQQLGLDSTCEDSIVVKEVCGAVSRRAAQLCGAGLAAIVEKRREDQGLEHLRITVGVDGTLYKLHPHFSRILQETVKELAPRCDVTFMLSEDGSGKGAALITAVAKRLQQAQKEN

[7] = biological target: T4, Alkaline phosphatase, tissue-nonspecific isozyme (Homo sapiens, UniProt P05186); assay: human TNAP enzyme inhibitors, SAR follow-up, biochemical, luminescent, dose response (AID 1056)
T4 sequence (P05186 whole entry): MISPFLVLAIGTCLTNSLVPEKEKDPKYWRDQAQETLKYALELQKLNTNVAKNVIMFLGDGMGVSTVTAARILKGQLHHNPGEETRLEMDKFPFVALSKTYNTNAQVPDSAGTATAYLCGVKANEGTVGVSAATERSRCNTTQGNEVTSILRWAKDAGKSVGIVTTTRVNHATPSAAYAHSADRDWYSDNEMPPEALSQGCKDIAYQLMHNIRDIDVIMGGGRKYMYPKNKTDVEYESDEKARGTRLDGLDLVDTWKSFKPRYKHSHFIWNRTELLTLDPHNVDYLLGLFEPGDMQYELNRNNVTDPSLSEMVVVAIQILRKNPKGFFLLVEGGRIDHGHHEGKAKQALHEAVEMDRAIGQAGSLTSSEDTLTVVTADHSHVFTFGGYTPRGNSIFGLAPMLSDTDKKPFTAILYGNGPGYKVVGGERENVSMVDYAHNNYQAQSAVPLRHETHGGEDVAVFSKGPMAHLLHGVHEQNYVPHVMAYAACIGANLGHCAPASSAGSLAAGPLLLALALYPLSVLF

[8] = biological target: Glyceraldehyde-3-phosphate dehydrogenase (Homo sapiens, UniProt P04406)
[9] = biological target: T5, Heat shock factor protein 1 (Mus musculus, UniProt P38532); assay: HSF1 potentiators in luciferase reporter cells, confirmation, cell-based, NIH3T3, luminescence, dose retest (AID 435004); type: functional;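 note: stress induced by proteasome inhibitor MG132 added 30 min after compound; luciferase reporter driven by HSF1 response element in NIH3T3 cells; actives raise luminescence as potentiators of the MG132 stress response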
T5 sequence (P38532 whole entry): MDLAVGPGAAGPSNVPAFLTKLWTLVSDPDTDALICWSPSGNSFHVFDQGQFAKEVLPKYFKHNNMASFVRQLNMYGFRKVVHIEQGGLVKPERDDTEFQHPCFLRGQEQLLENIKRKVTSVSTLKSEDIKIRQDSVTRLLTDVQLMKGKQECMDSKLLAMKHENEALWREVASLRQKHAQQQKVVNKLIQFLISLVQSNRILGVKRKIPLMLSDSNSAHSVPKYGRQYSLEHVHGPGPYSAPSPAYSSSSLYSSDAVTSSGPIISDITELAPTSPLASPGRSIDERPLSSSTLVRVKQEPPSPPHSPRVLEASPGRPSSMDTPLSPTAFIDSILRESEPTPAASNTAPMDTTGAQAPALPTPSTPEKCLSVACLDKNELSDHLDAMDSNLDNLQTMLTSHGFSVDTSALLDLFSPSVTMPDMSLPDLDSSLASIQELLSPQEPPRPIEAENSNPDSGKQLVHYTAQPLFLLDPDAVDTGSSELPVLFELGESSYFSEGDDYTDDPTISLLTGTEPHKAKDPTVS

Vero = assay: host cell cytotoxicity of antiviral hits, dose response, cytotoxicity control for West Nile virus antiviral project, secondary assay (AID 1650); type: functional; conditions: Chlorocebus sabaeus
[10] = non-specific cell cytotoxicity, dose response, cytotoxicity control for PAX8 inhibitor project, plate reader, dry powder samples (AID 743021); type: functional, cell-based
Paired box protein Pax-8 = Paired box protein Pax-8 (Homo sapiens, UniProt Q06710); assay: inhibitors of PAX8-driven TPO luciferase reporter, dose response, RMG-I cells, cherry-pick (AID 687027); type: functional, cell-based;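 note: luciferase reporter driven by Pax8 target thyroperoxidase promoter measured by SteadyGlo luminescence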
[11] = biological target: Alkaline phosphatase, placental type (Homo sapiens, UniProt P05187); assay: PLAP enzyme inhibitors, confirmation, biochemical, luminescence (AID 1512); type: functional
[12] = cytotoxicity in MIN6 insulinoma cells, dose response, cytotoxicity control, cell-based, mouse insulinoma (AID 2122); type: functional;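 note: confirmatory high-throughput counterscreen run to flag cytotoxic compounds; mouse MIN-6 beta cells carrying an insulin promoter eGFP reporter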
Tumor necrosis factor = Tumor necrosis factor (Homo sapiens, UniProt P01375); assay: TNFa-triggered NF-kB activation inhibitors, SAR follow-up, cell-based, revised (AID 2337); type: functional
[13] = Shn3 3'UTR reporter inhibitors, dose response, cell-based, Clone20 osteoblasts, firefly luciferase, cherry-picked (AID 624132); type: functional;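 note: firefly luciferase luminescence from reporter carrying the Shn3 3'UTR in osteoblasts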
[14] = control 3'UTR Renilla luciferase suppression, dose response, counter-screen for Shn3 inhibitor project, cell-based, Clone20-Shn3RL, cherry-picked (AID 624133); type: functional
[15] = HepG2 cell cytotoxicity, dose response, cytotoxicity control for Shn3 inhibitor project, CellTiter-Glo, cherry-picked (AID 624134); type: functional, cell-based
HEK293 = assay: cells; conditions: Homo sapiens
[16] = insulin promoter down-regulators in MIN6 cells, imaging, high-content screening, mouse beta cells (AID 1628); type: functional
[17] = cytotoxicity in HEK-293T cells, dose response, cytotoxicity control for TCR NF-kB inhibitor project, luminescence, T-cell screen hits (AID 489026); type: functional, cell-based;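 note: cells exposed to compound about 14 hours before the viability readout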
[18] = biological target: Nucleotide-binding oligomerization domain-containing protein 1 (Homo sapiens, UniProt Q9Y239); assay: NOD1 signaling inhibitors, SAR follow-up, revised (AID 2333); type: functional
Sequence of Nucleotide-binding oligomerization domain-containing protein 1 (Q9Y239 whole entry, the tested form may be a part): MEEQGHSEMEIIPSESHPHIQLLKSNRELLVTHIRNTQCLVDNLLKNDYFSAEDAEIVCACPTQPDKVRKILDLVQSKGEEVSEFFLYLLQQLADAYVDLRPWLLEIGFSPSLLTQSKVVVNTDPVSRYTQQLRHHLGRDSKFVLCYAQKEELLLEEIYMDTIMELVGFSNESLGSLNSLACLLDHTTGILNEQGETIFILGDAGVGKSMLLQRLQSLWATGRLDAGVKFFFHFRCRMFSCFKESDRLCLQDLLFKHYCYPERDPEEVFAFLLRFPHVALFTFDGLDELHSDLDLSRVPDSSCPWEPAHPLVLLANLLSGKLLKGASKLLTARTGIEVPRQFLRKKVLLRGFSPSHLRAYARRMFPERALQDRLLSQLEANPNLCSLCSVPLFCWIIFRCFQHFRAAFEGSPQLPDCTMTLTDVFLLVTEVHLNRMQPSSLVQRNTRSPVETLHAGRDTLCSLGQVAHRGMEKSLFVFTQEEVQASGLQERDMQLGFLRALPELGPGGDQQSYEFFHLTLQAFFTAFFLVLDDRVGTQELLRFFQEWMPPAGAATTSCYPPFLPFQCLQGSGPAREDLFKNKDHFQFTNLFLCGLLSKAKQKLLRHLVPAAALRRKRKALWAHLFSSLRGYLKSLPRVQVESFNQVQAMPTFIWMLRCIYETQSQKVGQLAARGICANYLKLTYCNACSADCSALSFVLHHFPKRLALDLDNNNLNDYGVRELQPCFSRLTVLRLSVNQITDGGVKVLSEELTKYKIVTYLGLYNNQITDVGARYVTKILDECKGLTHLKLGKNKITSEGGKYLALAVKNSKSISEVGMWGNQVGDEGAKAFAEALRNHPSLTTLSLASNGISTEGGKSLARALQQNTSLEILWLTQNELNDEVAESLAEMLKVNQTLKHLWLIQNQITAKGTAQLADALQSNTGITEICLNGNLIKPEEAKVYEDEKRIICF

Sequence of Paired box protein Pax-8 (Q06710 whole entry): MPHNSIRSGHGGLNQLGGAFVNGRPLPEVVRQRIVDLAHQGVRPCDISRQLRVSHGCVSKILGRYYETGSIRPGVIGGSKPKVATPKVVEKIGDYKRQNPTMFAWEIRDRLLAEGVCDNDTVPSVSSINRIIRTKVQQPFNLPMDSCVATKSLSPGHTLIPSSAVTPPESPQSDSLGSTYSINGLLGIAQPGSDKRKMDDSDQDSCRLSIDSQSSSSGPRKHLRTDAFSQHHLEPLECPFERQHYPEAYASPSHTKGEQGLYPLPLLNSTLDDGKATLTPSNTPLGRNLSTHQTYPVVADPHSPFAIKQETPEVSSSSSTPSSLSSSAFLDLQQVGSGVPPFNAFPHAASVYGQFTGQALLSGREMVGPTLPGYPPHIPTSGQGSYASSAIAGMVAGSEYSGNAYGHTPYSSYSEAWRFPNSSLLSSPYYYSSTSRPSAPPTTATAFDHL
Sequence of Tumor necrosis factor (P01375 whole entry): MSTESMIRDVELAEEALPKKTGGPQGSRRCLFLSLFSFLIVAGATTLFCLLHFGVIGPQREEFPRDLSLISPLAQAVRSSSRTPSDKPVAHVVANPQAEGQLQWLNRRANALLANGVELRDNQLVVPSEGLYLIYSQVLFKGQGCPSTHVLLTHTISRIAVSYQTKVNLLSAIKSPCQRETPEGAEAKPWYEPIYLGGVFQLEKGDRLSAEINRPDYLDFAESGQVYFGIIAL
Sequence of Alkaline phosphatase, placental type (P05187 whole entry): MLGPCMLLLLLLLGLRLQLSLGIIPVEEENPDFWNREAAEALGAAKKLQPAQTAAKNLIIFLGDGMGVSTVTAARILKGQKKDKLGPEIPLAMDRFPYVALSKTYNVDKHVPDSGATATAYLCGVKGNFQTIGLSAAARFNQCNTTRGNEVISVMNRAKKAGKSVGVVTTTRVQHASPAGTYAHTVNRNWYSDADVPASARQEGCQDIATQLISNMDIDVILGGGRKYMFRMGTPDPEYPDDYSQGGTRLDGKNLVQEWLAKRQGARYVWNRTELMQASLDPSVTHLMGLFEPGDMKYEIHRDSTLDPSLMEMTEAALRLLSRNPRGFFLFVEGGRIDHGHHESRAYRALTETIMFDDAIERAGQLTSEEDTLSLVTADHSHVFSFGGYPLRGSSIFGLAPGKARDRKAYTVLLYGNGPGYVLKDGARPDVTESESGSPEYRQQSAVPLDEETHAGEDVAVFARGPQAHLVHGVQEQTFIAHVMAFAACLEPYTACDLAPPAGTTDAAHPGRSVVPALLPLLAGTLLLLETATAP
Sequence of Glyceraldehyde-3-phosphate dehydrogenase (P04406 whole entry): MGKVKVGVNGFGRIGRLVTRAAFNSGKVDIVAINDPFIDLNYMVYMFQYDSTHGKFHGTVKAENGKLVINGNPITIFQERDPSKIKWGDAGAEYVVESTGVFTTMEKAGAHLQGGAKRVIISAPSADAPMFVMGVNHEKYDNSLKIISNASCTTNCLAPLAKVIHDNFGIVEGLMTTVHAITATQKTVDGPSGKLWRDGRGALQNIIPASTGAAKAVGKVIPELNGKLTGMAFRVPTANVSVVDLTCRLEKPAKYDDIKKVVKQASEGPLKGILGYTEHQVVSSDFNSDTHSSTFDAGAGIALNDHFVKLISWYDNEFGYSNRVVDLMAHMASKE

## CC(=O)n1cc(N(C(=O)CCl)c2ccc([N+](=O)[O-])cc2)c2ccccc21
[1]
  AC50: 1.59 µM (active)
[2]
  EC50: 2.63 µM (inconclusive)
BJ [3]
  EC50: 2.59 µM (inconclusive)
BJ [4]
  EC50: 4.78 µM (inconclusive)
Protein RecA
  EC50: 0.358 µM (active)
[5]
  CC50: 12.3 µM (active)
BJ [6]
  EC50: 2.65 µM (inconclusive)
Hexokinase HKDC1
  IC50: 27 µM (inactive)

## O=S(=O)(Nc1ccc2ccccc2c1)c1ccccc1
[7]
  IC50: > 100 µM (inactive)
[8]
  IC50: > 100 µM (not active)

## Cc1ccc(N(NC(=O)C(O)(c2ccccc2)c2ccccc2)C(=O)CCl)cc1
[1]
  AC50: 4.45 µM (active)
Protein RecA
  EC50: 0.529 µM (active)
[5]
  CC50: 7.46 µM (active)
[9]
  EC50: > 260 µM (inconclusive)
Vero
  CC50: 6.32 µM (active)
[10]
  AC50: 11.8 µM (active)
Paired box protein Pax-8
  AC50: 8.18 µM (active)

## Cc1cc(C)nc(SCC(=O)c2cccc(O)c2)n1
[7]
  IC50: > 100 µM (inactive)
[11]
  IC50: > 100 µM (inactive)

## O=C(Nc1ccc(S(=O)(=O)N2CCCC2)cc1)c1ccc(CN2CCc3ccccc3C2)cc1
[12]
  IC50: 0.576 µM (active)
Tumor necrosis factor
  IC50: 0.639 µM (active)
[13]
  AC50: 0.575 µM (active)
[14]
  AC50: 0.406 µM (active)
[15]
  AC50: 0.292 µM (active)
HEK293
  IC50: 6.77 µM (active)
[16]
  IC50: 0.707 µM (active)
[17]
  IC50: > 80 µM (inactive)
[18]
  IC50: 0.418 µM (active)
